Data published in US9179678B2, “Substituted [1,2,4]triazoles and substituted tetrazoles as herbicides” (SYNGENTA LIMITED, priority 2012, dated 2015).

Legend:
Type in all cases: in vivo
Setaria faberi (SETFA) [1] = assay: Post-emergence glasshouse herbicide test; conditions: POST Application, 1000 g/h, after 13 days
Experimental: Seeds of a variety of test species are sown in standard soil in pots (Alopecurus myosuroides (ALOMY), Setaria faberi (SETFA), Echinochloa crus-galli (ECHCG), Solanum nigrum (SOLNI), Amaranthus retoflexus (AMARE), Ipomoea hederacea (IPOHE)). After cultivation for one day (pre-emergence) or after 8 days cultivation (post-emergence) under controlled conditions in a glasshouse (at 24/16° C., day/night; 14 hours light; 65% humidity), the plants are sprayed with an aqueous spray solution derived from the formulation of the technical active ingredient in acetone/water (50:50) solution containing 0.5% Tween 20 (polyoxyethelyene sorbitan monolaurate, CAS RN 9005-64-5). […] The test plants are then grown in a glasshouse under controlled conditions in a glasshouse (at 24/16° C., day/night; 14 hours light; 65% humidity) and watered twice daily. After 13 days for pre and post-emergence, the test is evaluated for the percentage damage caused to the plant. The biological activities are shown in the following table on a five point scale (5=80-100%; 4=60-79%; 3=40-59%; 2=20-39%; 1=0-19%).

[2] = system: Amaranthus retoflexus (AMARE); assay: Post-emergence glasshouse herbicide test; conditions: POST Application, 1000 g/h, after 13 days
Experimental: (§1) Seeds of a variety of test species are sown in standard soil in pots (Alopecurus myosuroides (ALOMY), Setaria faberi (SETFA), Echinochloa crus-galli (ECHCG), Solanum nigrum (SOLNI), Amaranthus retoflexus (AMARE), Ipomoea hederacea (IPOHE)). After cultivation for one day (pre-emergence) or after 8 days cultivation (post-emergence) under controlled conditions in a glasshouse (at 24/16° C., day/night; 14 hours light; 65% humidity), the plants are sprayed with an aqueous spray solution derived from the formulation of the technical active ingredient in acetone/water (50:50) solution containing 0.5% Tween 20 (polyoxyethelyene sorbitan monolaurate, CAS RN 9005-64-5). Compounds ae applied at 1000 g/h. The test plants are then grown in a glasshouse under controlled conditions in a glasshouse (at 24/16° C., day/night; 14 hours light; 65% humidity) and watered twice daily. After 13 days for pre and post-emergence, the test is evaluated for the percentage damage caused to the plant. The biological activities are shown in the following table on a five point scale (5=80-100%; 4=60-79%; 3=40-59%; 2=20-39%; 1=0-19%).

[3] = system: Alopecurus myosuroides (ALOMY); assay: Post-emergence glasshouse herbicide test; conditions: POST Application, 1000 g/h, after 13 days
Experimental: as §1

[4] = system: Echinochloa crus-galli (ECHCG); assay: Post-emergence glasshouse herbicide test; conditions: POST Application, 1000 g/h, after 13 days
Experimental: as §1

[5] = system: Ipomoea hederacea (IPOHE); assay: Post-emergence glasshouse herbicide test; conditions: POST Application, 1000 g/h, after 13 days
Experimental: as §1

Solanum nigrum (SOLNI) [6] = assay: Post-emergence glasshouse herbicide test; conditions: POST Application, 1000 g/h, after 13 days
Experimental: as §1

[7] = system: Amaranthus retoflexus (AMARE); assay: Pre-emergence glasshouse herbicide test; conditions: PRE Application, 1000 g/h, after 13 days
Experimental: as §1

Setaria faberi (SETFA) [8] = assay: Pre-emergence glasshouse herbicide test; conditions: PRE Application, 1000 g/h, after 13 days
Experimental: as §1

[9] = system: Alopecurus myosuroides (ALOMY); assay: Pre-emergence glasshouse herbicide test; conditions: PRE Application, 1000 g/h, after 13 days
Experimental: as §1

[10] = system: Echinochloa crus-galli (ECHCG); assay: Pre-emergence glasshouse herbicide test; conditions: PRE Application, 1000 g/h, after 13 days
Experimental: as §1

[11] = system: Ipomoea hederacea (IPOHE); assay: Pre-emergence glasshouse herbicide test; conditions: PRE Application, 1000 g/h, after 13 days
Experimental: as §1

Solanum nigrum (SOLNI) [12] = assay: Pre-emergence glasshouse herbicide test; conditions: PRE Application, 1000 g/h, after 13 days
Experimental: as §1

Row | SMILES | percentage damage caused to the plant, SETFA (Setaria faberi (SETFA) [1]) | percentage damage caused to the plant, AMARE [2] | percentage damage caused to the plant, ALOMY [3] | percentage damage caused to the plant, ECHCG [4] | percentage damage caused to the plant, IPOHE [5] | percentage damage caused to the plant, SOLNI (Solanum nigrum (SOLNI) [6]) | percentage damage caused to the plant, AMARE [7] | percentage damage caused to the plant, SETFA (Setaria faberi (SETFA) [8]) | percentage damage caused to the plant, ALOMY [9] | percentage damage caused to the plant, ECHCG [10] | percentage damage caused to the plant, IPOHE [11] | percentage damage caused to the plant, SOLNI (Solanum nigrum (SOLNI) [12])
1 | Cn1nnnc1NC(=O)c1cc2cccnc2n(C)c1=O [Compound 1.001] | 1 (1=0-19%) | 3 (3=40-59%) | 1 (1=0-19%) | 3 (3=40-59%) | 2 (2=20-39%) | 5 (5=80-100%) | 2 (2=20-39%) | 1 (1=0-19%) | 1 (1=0-19%) | 1 (1=0-19%) | 1 (1=0-19%) | 2 (2=20-39%)
2 | Cn1nnnc1NC(=O)c1cc2cnc(Cl)cc2n(-c2ccccc2)c1=O [Compound 2.001] | 1 (1=0-19%) | 5 (5=80-100%) | 1 (1=0-19%) | 1 (1=0-19%) | 5 (5=80-100%) | 5 (5=80-100%) | 5 (5=80-100%) | 1 (1=0-19%) | 1 (1=0-19%) | 1 (1=0-19%) | 2 (2=20-39%) | 4 (4=60-79%)
3 | CCn1c(=O)c(C(=O)Nc2nnnn2C)cc2cnc(Cl)cc21 [Compound 2.002] | 1 (1=0-19%) | 5 (5=80-100%) | 1 (1=0-19%) | 2 (2=20-39%) | 5 (5=80-100%) | 5 (5=80-100%) | 5 (5=80-100%) | 1 (1=0-19%) | 1 (1=0-19%) | 2 (2=20-39%) | 3 (3=40-59%) | 4 (4=60-79%)
4 | CCn1c(=O)c(C(=O)Nc2nnnn2C)cc2cnccc21 [Compound 2.003] | 1 (1=0-19%) | 3 (3=40-59%) | 1 (1=0-19%) | 1 (1=0-19%) | 2 (2=20-39%) | 3 (3=40-59%) | 1 (1=0-19%) | 1 (1=0-19%) | 1 (1=0-19%) | 1 (1=0-19%) | 1 (1=0-19%) | 1 (1=0-19%)
5 | Cn1nnnc1NC(=O)c1nc2cc(C(F)(F)F)ccc2n(C)c1=O [Compound 3.001] | 2 (2=20-39%) | 4 (4=60-79%) | 1 (1=0-19%) | 2 (2=20-39%) | 3 (3=40-59%) | 4 (4=60-79%) | 2 (2=20-39%) | 1 (1=0-19%) | 1 (1=0-19%) | 2 (2=20-39%) | 1 (1=0-19%) | 3 (3=40-59%)
6 | Cn1nnnc1NC(=O)c1nc2cccnc2n(C)c1=O [Compound 4.001] | 2 (2=20-39%) | 5 (5=80-100%) | 1 (1=0-19%) | 5 (5=80-100%) | 4 (4=60-79%) | 5 (5=80-100%) | 5 (5=80-100%) | 1 (1=0-19%) | 1 (1=0-19%) | 4 (4=60-79%) | 3 (3=40-59%) | 5 (5=80-100%)
7 | Cn1nnnc1NC(=O)c1nc2cccnc2n(-c2ccccc2)c1=O [Compound 4.002] | 1 (1=0-19%) | 2 (2=20-39%) | 1 (1=0-19%) | 1 (1=0-19%) | 1 (1=0-19%) | 3 (3=40-59%) | 1 (1=0-19%) | 1 (1=0-19%) | 1 (1=0-19%) | 1 (1=0-19%) | 1 (1=0-19%) | 1 (1=0-19%)
8 | Cn1nnnc1NC(=O)c1nc2ccccc2n(C)c1=O [Compound 5.002] | 1 (1=0-19%) | 5 (5=80-100%) | 1 (1=0-19%) | 4 (4=60-79%) | 5 (5=80-100%) | 5 (5=80-100%) | 5 (5=80-100%) | 1 (1=0-19%) | 1 (1=0-19%) | 5 (5=80-100%) | 5 (5=80-100%) | 5 (5=80-100%)
9 | Cc1cccc(-n2c(=O)c(C(=O)Nc3nnnn3C)nc3ccccc32)n1 [Compound 5.003] | 5 (5=80-100%) | 5 (5=80-100%) | 5 (5=80-100%) | 5 (5=80-100%) | 5 (5=80-100%) | 5 (5=80-100%) | 5 (5=80-100%) | 5 (5=80-100%) | 5 (5=80-100%) | 5 (5=80-100%) | 5 (5=80-100%) | 5 (5=80-100%)
10 | Cn1nnnc1NC(=O)c1nc2ccccc2n(-c2ccccc2)c1=O [Compound 5.004] | 2 (2=20-39%) | 5 (5=80-100%) | 2 (2=20-39%) | 3 (3=40-59%) | 5 (5=80-100%) | 5 (5=80-100%) | 5 (5=80-100%) | 4 (4=60-79%) | 3 (3=40-59%) | 5 (5=80-100%) | 5 (5=80-100%) | 5 (5=80-100%)
